# Data published in ChEMBL document CHEMBL5356995, “Aurones and derivatives as promising New Delhi metallo-β-lactamase (NDM-1) inhibitors” (Bioorg Med Chem, 2024).
# How the values were obtained:
# [1] = target: Metallo-beta-lactamase type 2 (Bacteria) (UniProt C7C422); assay: Inhibition of bacterial NDM-1 assessed as substrate hydrolysis at 50 uM using imipenem as substrate by spectrophotometric analysis relative to control
# [2] = system: Bacteria; assay: Inhibition of bacterial VIM-2 assessed as substrate hydrolysis at 50 uM using imipenem as substrate by spectrophotometric analysis relative to control
# [3] = system: Bacteria; assay: Inhibition of bacterial IMP-1 assessed as substrate hydrolysis at 50 uM using imipenem as substrate by spectrophotometric analysis relative to control
# Sequence of Metallo-beta-lactamase type 2 (Bacteria) (C7C422 whole entry): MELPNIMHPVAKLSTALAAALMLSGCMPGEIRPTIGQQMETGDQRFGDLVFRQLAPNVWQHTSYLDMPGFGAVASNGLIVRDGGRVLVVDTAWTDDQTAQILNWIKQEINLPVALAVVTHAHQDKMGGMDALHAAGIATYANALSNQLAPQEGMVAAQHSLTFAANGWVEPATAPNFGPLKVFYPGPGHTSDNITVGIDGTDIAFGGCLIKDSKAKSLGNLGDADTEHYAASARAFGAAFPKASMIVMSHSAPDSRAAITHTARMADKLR
Structure (SMILES),inhibition [1] [%],inhibition [2] [%],inhibition [3] [%]
CN1CCN(c2ccc(/C=C3\Oc4cccc(O)c4C3=O)cc2)CC1,< 10,< 10,12
COc1ccc(/C=C2\Oc3cc(O)cc(O)c3C2=O)cc1OC,23,< 10,21
O=C1/C(=C/c2c(O)cc(O)cc2O)Oc2c(O)cccc21,< 10,< 10,< 10
CCCCn1cc(/C=C2\Oc3cc(O)cc(O)c3C2=O)c2cc(O)ccc21,< 10,< 10,30
COc1cc(OC)c2c(c1)O/C(=C\c1ccc(OC)c(OC)c1OC)C2=O,< 10,< 10,17
Cc1cccc(Cn2cc(/C=C3\Oc4cc(O)cc(O)c4C3=O)c3ccccc32)c1,54,11,43
O=C1/C(=C/c2ccc(Cl)cc2)Oc2c(O)cccc21,< 10,< 10,< 10
O=C(O)c1ccc(/C=C2\Oc3c(O)cccc3C2=O)cc1,24,< 10,< 10
O=C1/C(=C/c2ccc(F)cc2)Oc2c(O)cccc21,< 10,< 10,< 10
O=C1/C(=C/c2cn(Cc3ccc(Br)cc3)c3ccccc23)Oc2cc(O)cc(O)c21,44,< 10,22
NCCN[C@H]1CC[C@@H](CC(=O)N[C@H]2Cc3cccc(C(=O)O)c3OB2O)CC1,> 98,> 98,41
CCCCOc1ccc(/C=C2\Oc3cc(O)cc(O)c3C2=O)c(O)c1,46,–,–

# The remaining lines, values ahead:
inhibition [1] [%],inhibition [2] [%],inhibition [3] [%],Structure (SMILES)
< 10,< 10,< 10,O=C1/C(=C/c2ccc(O)cc2O)Oc2c(O)cccc21
< 10,< 10,< 10,O=C1/C(=C/c2ccc(O)cc2O)Oc2ccccc21
16,< 10,< 10,O=C1/C(=C/c2ccc(C3CCCCC3)cc2)Oc2cc(O)cc(O)c21
< 10,< 10,14,O=C1/C(=C/c2ccc(O)cc2O)Oc2cc(O)cc(O)c21
< 10,< 10,< 10,CCCCc1ccc(/C=C2\Oc3c(ccc(O)c3O)C2=O)cc1
< 10,< 10,12.4,O=C1/C(=C/c2ccc(O)cc2)Oc2cc(O)cc(O)c21
< 10,< 10,13,COc1cc(O)ccc1/C=C1\Oc2cc(O)ccc2C1=O
50,< 10,19,O=C1/C(=C/c2ccc3ccccc3c2)Oc2c1ccc(O)c2O
30,10.3,28,COc1ccc(/C=C2\Oc3c(ccc(O)c3O)C2=O)c(OC)c1
< 10,14,13,COc1cc(/C=C2\Oc3cc(O)ccc3C2=O)ccc1O
< 10,< 10,< 10,COc1cc(/C=C2\Oc3ccccc3C2=O)ccc1O
20,< 10,< 10,COc1ccc(/C=C2\Oc3c(O)cccc3C2=O)cc1
20,< 10,24,O=C1/C(=C/c2ccc(O)cc2O)Oc2c1ccc(O)c2O
18,< 10,39,Cn1cc(/C=C2\Oc3cc(O)ccc3C2=O)c2cc(Br)ccc21
38,< 10,20,COc1ccc(/C=C2\Oc3cc(O)cc(O)c3C2=O)cc1
41,< 10,25,CCCCOc1ccc(/C=C2\Oc3cc(O)cc(O)c3C2=O)cc1
< 10,< 10,17,O=C1/C(=C/c2ccc(C(F)(F)F)cc2)Oc2c1ccc(O)c2O
